Positions of bridges follow the written chain, without caps; N, C: chain ends. Residues, ends and D or L forms follow the SMILES beside them.
Legend:
CXCL9_HUMAN = target: T1, CXCL9_HUMAN (Homo sapiens, UniProt Q07325); assay: Yeast surface display (YSD) FACS binding; settings: FACS re-test; mean percent shift where several clones
T1 sequence (Q07325 23-125): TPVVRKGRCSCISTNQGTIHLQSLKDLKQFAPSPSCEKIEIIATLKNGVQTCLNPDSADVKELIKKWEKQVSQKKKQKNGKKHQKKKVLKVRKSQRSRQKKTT
Experimental: Table 1. Tick CKBPs described in PCT/GB2017/050563 and [17]. Tick peptide sequences isolated in yeast surface display fluorescent-activated cell sorting (FACS) screens using a labelled chemokine. Identity with Evasin-1, 4 or 3 was calculated using BLAST. Abbreviations: IXORI—Ixodes ricinus, RHISA—Rhipicephalus sanguineus, AMBMA—Amblyomma maculatum, AMBPA—Amblyomma parvum, AMBTR—Amblyomma triste, AMBAM—Amblyomma americanum, AMBCA—Amblyomma cajennense, RHIPU—Rhipicephalus pulchellus. Table 2A-C. Binding characteristics of tick CKBPs previously disclosed (PCT/GB2017/050563 and [17]). All members of the human chemokine family[164] are listed in column 1. Binding to human chemokines was determined for 14 tick CKBPs using biolayer interferometry (BLI) with calculated Kd shown as Molar (Moles/Litre). […] Association, equilibrium and dissociation data were analysed using Octet software to create corresponding fitted curves, and used to calculate Kd. For yeast surface display, (YSD) background fluorescence was controlled for by using either an empty vector or by omitting the chemokine (i.e. using streptavidin-Alexa647 alone). An arbitrary threshold of >3 fold over background mean fluorescence intensity was chosen to describe confirmed re-tests. Where binding was detected data are indicated as “YES”. […] Data was analysed using GraphPad Prism to determine IC50, which is shown as Molar (Moles/Litre). […]

human CCL2-647 = target: T2, human CCL2-647 (Homo sapiens, UniProt P13500); assay: Fluorescent chemokine binding to THP-1 cells (flow cytometry); format: cell-based; settings: CCL2-647 1.2 nM, read-out: IC50 against CCL2-647 induced THP-1 cellular fluorescence
T2 construct: purchased Almac (UK)
T2 sequence (P13500 24-99): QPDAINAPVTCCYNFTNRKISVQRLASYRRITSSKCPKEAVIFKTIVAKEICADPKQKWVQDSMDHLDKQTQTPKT
Experimental: Data are shown as mean of two technical replicates. […] Curves were fitted with 4 parameters to estimate IC50.
Fluorescent chemokine (conjugated to AlexaFluor-647) binding to THP-1 cells results in an increase in the cellular fluorescence intensity, which is quantitatively measured using flow cytometry.
Fluorescent Chemokine/Receptor Blocking Assay CCL8-647 (2.5 nM, final) or […] (1.2 nM, final) was incubated for 30 minutes with varying doses of peptide (0-100 μM, final concentration) in 50 μL assay buffer (RPMI-1640+L-glutamine (4 mM)+10% heat treated fetal bovine serum+0.2% DMSO) at 37° C. This mixture was then added to 50,000 THP-1 cells in a 96-well v-bottomed plated to give a final volume of 100 μL, and everything incubated together for a further 30 minutes at 37° C. Following this time, the plate was centrifuged, the supernatant flicked off, and the cells resuspended in 150 μL ice cold PBSA. This was repeated twice more and the cells were finally resuspended in 150 μL ice cold PBSA. The median fluorescence intensity of 10,000 cells on the RL-1 channel was determined using an ATTUNE flow cytometer and plotted as function of peptide concentration and the data fitted to an inhibitor response curve with 4 parameters using Graph Pad prism 6. Experiments were performed as two technical and three biological replicates.

CCL7_HUMAN = CCL7_HUMAN (Homo sapiens, UniProt P80098); assay: Neutralisation of chemokine induced THP-1 cell migration; format: cell-based; settings: single concentration of peptide; EC80 CCL7 7.2 nM
CCL7_HUMAN, sequence (P80098 24-99): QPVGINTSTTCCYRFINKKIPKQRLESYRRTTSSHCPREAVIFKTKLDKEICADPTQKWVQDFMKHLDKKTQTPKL
Experimental: (§1) Table 1. Tick CKBPs described in PCT/GB2017/050563 and [17]. Tick peptide sequences isolated in yeast surface display fluorescent-activated cell sorting (FACS) screens using a labelled chemokine. Identity with Evasin-1, 4 or 3 was calculated using BLAST. Abbreviations: IXORI—Ixodes ricinus, RHISA—Rhipicephalus sanguineus, AMBMA—Amblyomma maculatum, AMBPA—Amblyomma parvum, AMBTR—Amblyomma triste, AMBAM—Amblyomma americanum, AMBCA—Amblyomma cajennense, RHIPU—Rhipicephalus pulchellus. Table 2A-C. Binding characteristics of tick CKBPs previously disclosed (PCT/GB2017/050563 and [17]). All members of the human chemokine family[164] are listed in column 1. Binding to human chemokines was determined for 14 tick CKBPs using biolayer interferometry (BLI) with calculated Kd shown as Molar (Moles/Litre). Binding data for 17 other novel tick CKBPs was assayed using yeast surface display[17,166],with positive binding results shown as “YES”. For biolayer interferometry, His-tagged purified tick CKBP was bound to a Ni-NINTA sensor on an OctetRed® 384 system, and then binding to each chemokine listed (with the exception of CCL25, CCL26, CXCL16, CXCL17, CXCL4L1, XCL2) was assayed in a cross-binding screen at a chemokine concentration of 300 nM as described. For those chemokines showing binding to a tick CKBP in the cross-binding screen, binding assays were repeated using different doses of chemokine. Association, equilibrium and dissociation data were analysed using Octet software to create corresponding fitted curves, and used to calculate Kd. For yeast surface display, (YSD) background fluorescence was controlled for by using either an empty vector or by omitting the chemokine (i.e. using streptavidin-Alexa647 alone). An arbitrary threshold of >3 fold over background mean fluorescence intensity was chosen to describe confirmed re-tests. Where binding was detected data are indicated as “YES”. […] For yeast surface display data, empty cells represent chemokines that were not tested. Binding data published in relation to previously described tick CKBPs (Evasins-1, 4 and 3) is also shown for comparison in each of FIGS. 2A-C, with the relevant data obtained from publications: [20-22,32]. Table 3: Neutralisation of human chemokines by tick CKBPs previously disclosed (PCT/GB2017/050563 and [17]). Neutralising activity was determined using a quantitative THP1 cell migration assay in a 96-well Boyden chamber with chemokine in the bottom chamber as described. Cells migrating through to the bottom chamber at 4 hours were counted using flow cytometry in a 96 well plate format. IC50 for neutralisation was determined at the chemokine EC80 dose as determined using a range of tick CKBP concentrations. Data was analysed using GraphPad Prism to determine IC50, which is shown as Molar (Moles/Litre). Empty cells represent experiments not done. Table 4—Other previously described tick CKBPs. Tick CKBPs that were also described in PCT/GB2017/050563 and Singh et al. are indicated in “Notes”. Table 5.—Novel tick CKBPs of the invention. Table 6. […] The peptide sequence prefix indicates the identity, and suffix indicate the tick species as follows: AMBCA, Amblyomma cajennense and IXORI, Ixodes ricinus. […] Individual yeast clones recovered from the library were re-tested using a FACS (fluorescence activated cell sorting), experiment. The binding of the peptide to the chemokine was assayed by measuring the percent (%), of yeast cells expressing the given peptide that exceeded a background threshold set by measuring the fluorescence of the yeast library pool treated with streptavidin-[…] alone. When more than one independent yeast clone was isolated for a given peptide-chemokine combination, the mean percent shift was calculated and reported in column 3.

CCL8_HUMAN = target: T3, CCL8_HUMAN (Homo sapiens, UniProt P80075); assay: as above; format: cell-based; settings: single concentration of peptide; EC80 CCL8 5.8 nM
T3 sequence (P80075 24-99): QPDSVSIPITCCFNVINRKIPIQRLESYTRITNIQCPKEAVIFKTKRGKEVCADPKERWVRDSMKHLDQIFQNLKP
Experimental: as §1

CCL2_HUMAN = CCL2_HUMAN (Homo sapiens, UniProt P13500); assay: as above; format: cell-based; settings: single concentration of peptide; EC80 CCL2 1.2 nM
CCL2_HUMAN, sequence (P13500 24-99): as the sequence (P13500 24-99) above
Experimental: as §1

CCL3_HUMAN = target: T4, CCL3_HUMAN (Homo sapiens, UniProt P10147); assay: as above; format: cell-based; settings: single concentration of peptide; EC80 CCL3 3.5 nM
T4 sequence (P10147 24-92): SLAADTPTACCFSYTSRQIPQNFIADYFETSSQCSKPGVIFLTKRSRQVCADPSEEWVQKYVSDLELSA
Experimental: as §1

Compound: P1124_IXORI: novel CXC-binding tick CKBP, Ixodes ricinus (DSKGTSDSQDSTKSIKVDFCETNCTKTDGGWTGCTGDCICVSVGDSIEGRCMDFG; listed as Ixodes ricinus)
- Chemokines bound in yeast surface display and % cells over threshold fluorescence: CXCL9_HUMAN (CXCL9_HUMAN): CXCL9_HUMAN 31%

Compound: CC(C)[C@@H]1NC(=O)[C@@H]2CCCN2C(=O)[C@H](CCCCN)NC(=O)[C@H](Cc2ccccc2)NC(=O)[C@H](Cc2ccccc2)NC(=O)[C@H](CC(=O)O)NC(=O)[C@H](CCC(=O)O)NC(=O)[C@H](Cc2ccc(O)cc2)NC(=O)[C@H](CC(=O)O)NC(=O)[C@H](CCC(=O)O)NC(=O)[C@H](CC(=O)O)NC(=O)[C@H](CCC(=O)O)NC(=O)[C@H](Cc2ccc(O)cc2)NC(=O)CSC[C@@H](C(=O)N[C@@H](Cc2ccc(O)cc2)C(=O)N[C@@H](Cc2ccccc2)C(N)=O)NC(=O)[C@H]([C@@H](C)O)NC1=O [BK1.2] ({CH2CO}-YEDEDYEDFFKPVTCYF-NH2; thioether N-15)
- IC50 (human CCL2-647): 6.3 µM
- Effect on CCL7-induced THP-1 cell migration (CCL7_HUMAN): stronger effect
- Effect on CCL8-induced THP-1 cell migration (CCL8_HUMAN): reduced CCL8 induced cell migration to baseline levels
- Effect on CCL2-induced THP-1 cell migration (CCL2_HUMAN): stronger effect
- Effect on CCL3-induced THP-1 cell migration (CCL3_HUMAN): significantly reduced

From patent US20200247855A1, “THERAPY AND DIAGNOSTICS” (OXFORD UNIVERSITY INNOVATION LIMITED, priority 2017, published 2020)
